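48-hour exposure; five concentrations; linearly interpolated endpoints. The concentration for 50% growth inhibition is given as GI50. Definition used: TGI = concentration required for complete inhibition of growth.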
Key:
Experiment in all cases: NCI-60 cell line screen, 48 h
[1] = test system: MDA-MB-435
[2] = test system: NCI-H226 lung
[3] = test system: HOP-92 NSCLC
[4] = test system: COLO 205 colon
[5] = test system: K-562 leukemia
[6] = test system: SNB-19 CNS
[7] = test system: M14 melanoma
[8] = test system: MALME-3M melanoma
[9] = test system: UO-31 renal
[10] = test system: HOP-62 NSCLC

| SMILES | GI50 [1] | TGI [1] | GI50 [2] | TGI [2] | GI50 [3] | TGI [3] | GI50 [4] | TGI [4] | GI50 [5] | TGI [5] | GI50 [6] | TGI [6] | GI50 [7] | TGI [7] | GI50 [8] | TGI [8] | GI50 [9] | TGI [9] | GI50 [10] | TGI [10] |
| --- | --- | --- | --- | --- | --- | --- | --- | --- | --- | --- | --- | --- | --- | --- | --- | --- | --- | --- | --- | --- |
| CC(=O)Oc1ccc(C2OC(c3ccc4ccccc4c3OC(C)=O)=NN2C(C)=O)c(OC(C)=O)c1 (centres undefined) | 0.638 µM | > 65 µM | 0.515 µM | > 38.9 µM | 0.252 µM | > 29.5 µM | 0.377 µM | > 32.3 µM | 0.402 µM | > 48.6 µM | 0.56 µM | > 100 µM | 0.368 µM | > 45.6 µM | 0.407 µM | 5.12 µM | 0.146 µM | 3.14 µM | 0.513 µM | > 100 µM |
| CC(C)(C)N1CC1CNC(=O)C(=O)NCC1CN1C(C)(C)C (centres undefined) |  | > 100 µM |  | 18.7 µM |  | 33.3 µM |  | 8.5 µM |  | 15 µM |  | > 25.5 µM |  | 16.6 µM |  | 8.68 µM |  | > 21.3 µM |  | 3.68 µM |
| O=C(O)c1ccc(CSc2nc3ccccc3[nH]2)cc1 | > 100 µM | > 100 µM | > 100 µM | > 100 µM | > 100 µM | > 100 µM | > 100 µM | > 100 µM | > 100 µM | > 100 µM | > 100 µM | > 100 µM | > 100 µM | > 100 µM | > 100 µM | > 100 µM | > 100 µM | > 100 µM | > 100 µM | > 100 µM |
| NS(=O)(=O)c1ccc(N=Nc2c(O)[nH]c3ccc(C(=O)NCCCn4ccnc4)cc23)cc1 | > 25 µM | > 25 µM | > 25 µM | > 25 µM | > 25 µM | > 25 µM | > 25 µM | > 25 µM | > 25 µM | > 25 µM | > 25 µM | > 25 µM | > 25 µM | > 25 µM | > 25 µM | > 25 µM | > 25 µM | > 25 µM | > 25 µM | > 25 µM |
| COc1ccc2c(c1)OCC1c3cc(OC)c4ccccc4c3OC21 (centres undefined) | 2.56 µM | 7.46 µM | 15.6 µM | 90.2 µM | 22.3 µM | > 100 µM | 7.98 µM | 33.1 µM | 4.62 µM | > 100 µM | 23.9 µM | > 100 µM | 7.23 µM | > 100 µM | 5.01 µM | > 100 µM | 22.2 µM | > 100 µM | 14.7 µM | > 100 µM |
| CCOC(=O)c1c(-c2ccccc2)n2c(=O)cc(C)c3c(O)c(O)cc1c32 | 15.7 µM | > 100 µM | 11.4 µM | 42.1 µM | 10.5 µM | 42.8 µM | 11 µM | 28.2 µM | 6.93 µM | 22.7 µM | 11.4 µM | 35.7 µM | 5.84 µM | 20.2 µM | 13.7 µM | 33.6 µM | 8.39 µM | 38.7 µM | 11.1 µM | 54.5 µM |
| COc1cc2c(Nc3ccc(-c4ccc(N)cc4)cc3)ncnc2c(OC)c1OC | 0.752 µM | 47.1 µM | 21 µM | > 100 µM | 18.3 µM | > 100 µM | 2.6 µM | 7.94 µM | 0.521 µM | > 100 µM | 7.76 µM | > 100 µM | 0.542 µM | > 67.1 µM | 22.4 µM | > 92.2 µM | 2.07 µM | > 76.5 µM | 24.8 µM | > 100 µM |
| CCCCCc1cc(/C=C2/N=C(c3ccc[nH]3)C=C2OC)[nH]c1C |  | 0.187 µM |  | 1.79 µM |  | 0.0213 µM |  | 0.0483 µM |  | 0.259 µM |  | 1.5 µM |  | < 0.034 µM |  | 0.275 µM |  | < 0.0193 µM |  | 0.362 µM |
| CCN1C(=O)/C(=c2\sc3n(c2=O)C2C(NN=3)N(CC)C(=O)N2CC)c2ccccc21 (centres undefined) | 0.199 µM | 0.449 µM | 0.736 µM | 22.8 µM | 1.13 µM | 25.6 µM | 0.468 µM | 11.3 µM | 0.362 µM | > 100 µM | 0.75 µM | 63 µM | 0.347 µM | 21.7 µM | 0.596 µM | > 100 µM | 0.846 µM | > 100 µM | 0.786 µM | > 42.6 µM |
| Cn1cc(-c2csc(-c3ccccc3)n2)c2cccnc21 | 11.2 µM | 26.5 µM | 16.6 µM | 42.4 µM | 1.81 µM | 15.4 µM | 14 µM | 26.9 µM | 13.9 µM | 48.9 µM | 15.9 µM | 47.8 µM | 13.9 µM | 27.8 µM | 16.4 µM | 42.6 µM | 11 µM | 28.3 µM | 15.5 µM | 29.5 µM |
| Cc1cc(S(=O)(=O)Nc2nc3ccccc3c(=O)n2Cc2ccco2)c(S)cc1Cl | 41.2 µM | > 100 µM | 83.6 µM | > 100 µM | > 100 µM | > 100 µM | > 100 µM | > 100 µM | 49.7 µM | > 100 µM |  | > 100 µM | 69.9 µM | > 100 µM | 54.8 µM | > 100 µM | 49.5 µM | > 100 µM | 32.8 µM | 69.6 µM |
| CS(=O)(=O)Nc1cc(-c2ccc3ncc(C#N)c(Nc4ccc(F)c(Cl)c4)c3c2)cnc1Cl | 0.22 µM | 1.85 µM | 0.258 µM | 2.16 µM | 0.0333 µM | 0.61 µM | 0.232 µM | 0.943 µM | 0.201 µM | > 100 µM | 0.212 µM | 1.64 µM | 0.193 µM | 1.92 µM | 0.0354 µM | 0.278 µM | 0.125 µM | 1.03 µM | 0.195 µM | 8.42 µM |
| COc1ccc(OC)c(C2=C(c3cn(C)c4ccccc34)C(=O)NC2=O)c1 | 8.6 µM | > 25 µM | > 25 µM | > 25 µM | > 25 µM | > 25 µM | > 25 µM | > 25 µM | 17.1 µM | > 25 µM | > 25 µM | > 25 µM | > 25 µM | > 25 µM | > 25 µM | > 25 µM | > 25 µM | > 25 µM | > 25 µM | > 25 µM |
